Measured values from PubChem BioAssay (NCI).
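GI50 marks 50% less growth. TGI: total growth inhibition.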

Key:
Experiment in all cases: inhibition of tumour cell growth, NCI panel, 384-well format
786-0 renal = system: 786-0 renal
A498 renal = system: A498 renal
A549 NSCLC = system: A549 NSCLC
ACHN renal = system: ACHN renal
BT-549 breast = system: BT-549 breast
CAKI-1 renal = system: CAKI-1 renal
CCRF-CEM leukemia = system: CCRF-CEM leukemia
DU-145 prostate = system: DU-145 prostate
EKVX NSCLC = system: EKVX NSCLC
HCC-2998 colon = system: HCC-2998 colon
HCT-116 colon = system: HCT-116 colon
HCT-15 colon = system: HCT-15 colon
HL-60(TB) leukemia = system: HL-60(TB) leukemia
HOP-62 NSCLC = system: HOP-62 NSCLC
HOP-92 NSCLC = system: HOP-92 NSCLC
HS 578T breast = system: HS 578T breast
HT29 colon = system: HT29 colon
IGROV1 ovarian = system: IGROV1 ovarian
KM12 colon = system: KM12 colon
LOX IMVI melanoma = system: LOX IMVI melanoma
M14 melanoma = system: M14 melanoma
MALME-3M melanoma = system: MALME-3M melanoma
MCF7 breast = system: MCF7 breast
MDA-MB-231 breast = system: MDA-MB-231 breast
MDA-MB-435 melanoma = system: MDA-MB-435 melanoma
MDA-MB-468 breast = system: MDA-MB-468 breast
NCI-H226 lung = system: NCI-H226 lung
NCI-H23 lung = system: NCI-H23 lung
NCI-H322M lung = system: NCI-H322M lung
NCI-H460 NSCLC = system: NCI-H460 NSCLC
NCI-H522 lung = system: NCI-H522 lung
OVCAR-3 ovarian = system: OVCAR-3 ovarian
OVCAR-4 ovarian = system: OVCAR-4 ovarian
OVCAR-5 ovarian = system: OVCAR-5 ovarian
PC-3 prostate = system: PC-3 prostate
RXF 393 renal = system: RXF 393 renal
SF-268 CNS = system: SF-268 CNS
SF-295 CNS = system: SF-295 CNS
SF-539 CNS = system: SF-539 CNS
SK-MEL-28 melanoma = system: SK-MEL-28 melanoma
SK-MEL-5 melanoma = system: SK-MEL-5 melanoma
SK-OV-3 ovarian = system: SK-OV-3 ovarian
SN12C renal = system: SN12C renal
SNB-19 CNS = system: SNB-19 CNS
SNB-75 CNS = system: SNB-75 CNS
SR leukemia = system: SR leukemia
SW-620 colon = system: SW-620 colon
T-47D breast = system: T-47D breast
TK-10 renal = system: TK-10 renal
U251 glioblastoma = system: U251 glioblastoma
UACC-257 melanoma = system: UACC-257 melanoma
UO-31 renal = system: UO-31 renal

With `O=C(Nc1cn[nH]c1-c1nc2ccc(CN3CCOCC3)cc2[nH]1)NC1CC1` the GI50 (786-0 renal) was 261 nM, the TGI (786-0 renal) was 10200 nM and the GI50 (A498 renal) was 289 nM. The TGI (A498 renal) was 6650 nM, the GI50 (A549 NSCLC) was 800 nM and the TGI (A549 NSCLC) was greater than 100000 nM. For the same compound, the GI50 (ACHN renal) was 413 nM, the TGI (ACHN renal) was greater than 100000 nM and the GI50 (BT-549 breast) was 58.7 nM. It also gave a TGI (BT-549 breast) of 386 nM, a GI50 (CAKI-1 renal) of 71.8 nM and a TGI (CAKI-1 renal) greater than 100000 nM. It also gave a TGI (CCRF-CEM leukemia) of 28 nM, a GI50 (DU-145 prostate) of 651 nM and a TGI (DU-145 prostate) of 70400 nM. It also gave a GI50 (EKVX NSCLC) of 196 nM, a TGI (EKVX NSCLC) of 4490 nM and a GI50 (HCC-2998 colon) of 1360 nM. It also gave a TGI (HCC-2998 colon) of 2810 nM, a GI50 (HCT-116 colon) of 71 nM and a TGI (HCT-116 colon) greater than 100000 nM. The GI50 (HCT-15 colon) was 1540 nM, the TGI (HCT-15 colon) was 11600 nM and the GI50 (HL-60(TB) leukemia) was 13 nM. The TGI (HL-60(TB) leukemia) was 28.1 nM, the GI50 (HOP-62 NSCLC) was 184 nM and the TGI (HOP-62 NSCLC) was 1390 nM. The GI50 (HOP-92 NSCLC) was 172 nM, the TGI (HOP-92 NSCLC) was 10800 nM and the GI50 (HS 578T breast) was 33.6 nM. The TGI (HS 578T breast) was 73.5 nM, the GI50 (HT29 colon) was 75.3 nM and the TGI (HT29 colon) was greater than 100000 nM. The GI50 (IGROV1 ovarian) was 633 nM, the TGI (IGROV1 ovarian) was greater than 100000 nM and the GI50 (KM12 colon) was 1040 nM. It also gave a TGI (KM12 colon) of 3490 nM, a GI50 (LOX IMVI melanoma) of 248 nM and a TGI (LOX IMVI melanoma) of 1120 nM. It also gave a GI50 (M14 melanoma) of 364 nM, a TGI (M14 melanoma) of 2210 nM and a GI50 (MALME-3M melanoma) of 1420 nM. For the same compound, the TGI (MALME-3M melanoma) was 3080 nM, the GI50 (MCF7 breast) was 345 nM and the TGI (MCF7 breast) was 7390 nM. The GI50 (MDA-MB-231 breast) was 322 nM, the TGI (MDA-MB-231 breast) was 2540 nM and the GI50 (MDA-MB-435 melanoma) was 1470 nM. It also gave a TGI (MDA-MB-435 melanoma) of 3370 nM, a GI50 (MDA-MB-468 breast) of 16.9 nM and a TGI (MDA-MB-468 breast) of 36.7 nM. It also gave a GI50 (NCI-H226 lung) of 85.8 nM, a TGI (NCI-H226 lung) of 273 nM and a GI50 (NCI-H23 lung) of 88.2 nM. It also gave a TGI (NCI-H23 lung) of 2030 nM, a GI50 (NCI-H322M lung) of 1290 nM and a TGI (NCI-H322M lung) of 3480 nM. The GI50 (NCI-H460 NSCLC) was 48.7 nM, the TGI (NCI-H460 NSCLC) was 1590 nM and the GI50 (NCI-H522 lung) was 237 nM. For the same compound, the TGI (NCI-H522 lung) was 835 nM, the GI50 (OVCAR-3 ovarian) was 156 nM and the TGI (OVCAR-3 ovarian) was 382 nM. It also gave a GI50 (OVCAR-4 ovarian) of 1120 nM, a TGI (OVCAR-4 ovarian) of 5390 nM and a GI50 (OVCAR-5 ovarian) of 1810 nM. The TGI (OVCAR-5 ovarian) was greater than 100000 nM, the GI50 (PC-3 prostate) was 299 nM and the TGI (PC-3 prostate) was 13900 nM. For the same compound, the GI50 (RXF 393 renal) was 22.3 nM, the TGI (RXF 393 renal) was 61.2 nM and the GI50 (SF-268 CNS) was 103 nM. The TGI (SF-268 CNS) was 436 nM, the GI50 (SF-295 CNS) was 187 nM and the TGI (SF-295 CNS) was 1210 nM. For the same compound, the GI50 (SF-539 CNS) was 168 nM, the TGI (SF-539 CNS) was 453 nM and the GI50 (SK-MEL-28 melanoma) was 1350 nM. The TGI (SK-MEL-28 melanoma) was 2910 nM, the GI50 (SK-MEL-5 melanoma) was 1260 nM and the TGI (SK-MEL-5 melanoma) was 2670 nM. It also gave a GI50 (SK-OV-3 ovarian) of 259 nM, a TGI (SK-OV-3 ovarian) of 2280 nM and a GI50 (SN12C renal) of 1030 nM. The TGI (SN12C renal) was 2420 nM, the GI50 (SNB-19 CNS) was 256 nM and the TGI (SNB-19 CNS) was 1730 nM. The GI50 (SNB-75 CNS) was 38.1 nM, the TGI (SNB-75 CNS) was 113 nM and the TGI (SR leukemia) was 18.7 nM. The GI50 (SW-620 colon) was 36.3 nM, the TGI (SW-620 colon) was greater than 100000 nM and the GI50 (T-47D breast) was 2200 nM. For the same compound, the TGI (T-47D breast) was 6040 nM, the GI50 (TK-10 renal) was 210 nM and the TGI (TK-10 renal) was 706 nM. For the same compound, the GI50 (U251 glioblastoma) was 228 nM, the TGI (U251 glioblastoma) was 1300 nM and the GI50 (UACC-257 melanoma) was 2090 nM. The TGI (UACC-257 melanoma) was 4190 nM, the GI50 (UO-31 renal) was 111 nM and the TGI (UO-31 renal) was 1210 nM.
